From patent US9708314B2, “Heterocyclic amide compound” (NISSAN CHEMICAL INDUSTRIES, LTD., priority 2013, dated 2017)

Assays:
Type in all cases: in vivo
Apera spica-venti. = experiment: Test Example 4: herbicidal effect by application to foliage (diluvial soil, plastic box); settings: 320 g/ha; for L (Apera spica-venti.) herbicidal effect grade: foliage application; for herbicidal effect, L (Apera spica-venti.): application to foliage
Outline: (§1)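 Greenhouse plants (25° C. to 30° C., 14 d, diluvial soil) receive a foliar spray of water-diluted emulsifiable formulation at defined g/ha. Grading after 3 weeks uses a six-step herbicidal-ratio scale, with 4 covering 70% to <90% and 1 covering 5% to <20%.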

Avena fatua = experiment: as above; settings: 320 g/ha; for I (Avena fatua) herbicidal effect grade: foliage application; for herbicidal effect, I (Avena fatua): application to foliage
Outline: as §1

Veronica persica = experiment: as above; settings: 320 g/ha; for R (Veronica persica) herbicidal effect grade: foliage application; for herbicidal effect, R (Veronica persica): application to foliage
Outline: as §1

Digitaria ciliaris = experiment: as above; settings: 320 g/ha; for F (Digitaria ciliaris) herbicidal effect grade: foliage application; for herbicidal effect, F (Digitaria ciliaris): application to foliage
Outline: as §1

Lolium multiflorum Lam. = experiment: as above; settings: 320 g/ha; for K (Lolium multiflorum Lam.) herbicidal effect grade: foliage application; for herbicidal effect, K (Lolium multiflorum Lam.): application to foliage
Outline: as §1

Abutilon theophrasti = experiment: as above; settings: 320 g/ha; for M (Abutilon theophrasti) herbicidal effect grade: foliage application; for herbicidal effect, M (Abutilon theophrasti): application to foliage
Outline: as §1

Amaranthus retroflexus = experiment: as above; settings: 320 g/ha; for N (Amaranthus retroflexus) herbicidal effect grade: foliage application; for herbicidal effect, N (Amaranthus retroflexus): application to foliage
Outline: as §1

Stellaria media = experiment: as above; settings: 320 g/ha; for P (Stellaria media) herbicidal effect grade: foliage application; for herbicidal effect, P (Stellaria media): application to foliage
Outline: as §1

[1] = system: Echinochloa crus-galli var. crus-galli; experiment: as above; settings: 320 g/ha; for H (Echinochloa crus-galli var. crus-galli) herbicidal effect grade: foliage application; for herbicidal effect, H (Echinochloa crus-galli var. crus-galli): application to foliage
Outline: as §1

Alopecurus myosuroides = experiment: as above; settings: 320 g/ha; for J (Alopecurus myosuroides) herbicidal effect grade: foliage application; for herbicidal effect, J (Alopecurus myosuroides): application to foliage
Outline: as §1

Chenopodium album = experiment: as above; settings: 320 g/ha; for O (Chenopodium album) herbicidal effect grade: foliage application; for herbicidal effect, O (Chenopodium album): application to foliage
Outline: as §1

Setaria viridis = experiment: as above; settings: 320 g/ha; for G (Setaria viridis) herbicidal effect grade: foliage application; for herbicidal effect, G (Setaria viridis): application to foliage
Outline: as §1

[2] = system: Echinochloa oryzacola Vasing.; experiment: Test Example 2: herbicidal activity, application during weed generation in submerged conditions; settings: Eighteenth Table; application herbicide amount 320 g/ha
Outline: (§2)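 Seeds were sown together in alluvial soil kept under 4 cm of water and grown at 25 °C to 30 °C. Once plants reached the one- to two-leaf stage, the diluted emulsion was applied to the water surface at a predetermined g/ha amount, and effects were rated 0–5 after three weeks.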

Monochoria vaginalis = experiment: as above; settings: Eighteenth Table; application herbicide amount 320 g/ha
Outline: as §2

Scirpus juncoides = experiment: as above; settings: Eighteenth Table; application herbicide amount 320 g/ha
Outline: as §2

| Structure (SMILES) | L (Apera spica-venti.) herbicidal effect grade (Apera spica-venti.) | I (Avena fatua) herbicidal effect grade (Avena fatua) | R (Veronica persica) herbicidal effect grade (Veronica persica) | F (Digitaria ciliaris) herbicidal effect grade (Digitaria ciliaris) | K (Lolium multiflorum Lam.) herbicidal effect grade (Lolium multiflorum Lam.) | A (Echinochloa oryzicola Vasing.) herbicidal ratio grade [2] | C (Monochoria vaginalis) herbicidal ratio grade (Monochoria vaginalis) | B (Scirpus juncoides) herbicidal ratio grade (Scirpus juncoides) | herbicidal effect, L (Apera spica-venti.) (Apera spica-venti.) | herbicidal effect, I (Avena fatua) (Avena fatua) | herbicidal effect, R (Veronica persica) (Veronica persica) | herbicidal effect, F (Digitaria ciliaris) (Digitaria ciliaris) | herbicidal effect, K (Lolium multiflorum Lam.) (Lolium multiflorum Lam.) | herbicidal effect, M (Abutilon theophrasti) (Abutilon theophrasti) | herbicidal effect, N (Amaranthus retroflexus) (Amaranthus retroflexus) | herbicidal effect, P (Stellaria media) (Stellaria media) | herbicidal effect, H (Echinochloa crus-galli var. crus-galli) [1] | herbicidal effect, J (Alopecurus myosuroides) (Alopecurus myosuroides) | herbicidal effect, O (Chenopodium album) (Chenopodium album) | herbicidal effect, G (Setaria viridis) (Setaria viridis) | also measured |
| --- | --- | --- | --- | --- | --- | --- | --- | --- | --- | --- | --- | --- | --- | --- | --- | --- | --- | --- | --- | --- | --- |
| Cn1nnnc1NC(=O)c1ccc(C(F)(F)F)n2c(S(C)(=O)=O)nnc12 [2-037] | 5 (Herbicidal ratio of 90% or more (almost completely withered)) | 5 (Herbicidal ratio of 90% or more (almost completely withered)) | 5 (Herbicidal ratio of 90% or more (almost completely withered)) | 5 (Herbicidal ratio of 90% or more (almost completely withered)) | 5 (Herbicidal ratio of 90% or more (almost completely withered)) | 5 (Herbicidal ratio of 90% or more (almost completely withered)) | 5 (Herbicidal ratio of 90% or more (almost completely withered)) | 5 (Herbicidal ratio of 90% or more (almost completely withered)) |  |  |  |  |  |  |  |  |  |  |  |  | M (Abutilon theophrasti) herbicidal effect grade (Abutilon theophrasti): 5 (Herbicidal ratio of 90% or more (almost completely withered)); N (Amaranthus retroflexus) herbicidal effect grade (Amaranthus retroflexus): 5 (Herbicidal ratio of 90% or more (almost completely withered)); P (Stellaria media) herbicidal effect grade (Stellaria media): 5 (Herbicidal ratio of 90% or more (almost completely withered)); H (Echinochloa crus-galli var. crus-galli) herbicidal effect grade [1]: 5 (Herbicidal ratio of 90% or more (almost completely withered)); J (Alopecurus myosuroides) herbicidal effect grade (Alopecurus myosuroides): 5 (Herbicidal ratio of 90% or more (almost completely withered)); O (Chenopodium album) herbicidal effect grade (Chenopodium album): 5 (Herbicidal ratio of 90% or more (almost completely withered)); G (Setaria viridis) herbicidal effect grade (Setaria viridis): 5 (Herbicidal ratio of 90% or more (almost completely withered)) |
| CC(C)c1nnc2c(C(=O)Nc3nnnn3C)ccc(C(F)F)n12 [2-047] | 3 (Herbicidal ratio of 40% or more and less than 70%) | 3 (Herbicidal ratio of 40% or more and less than 70%) | 5 (Herbicidal ratio of 90% or more (almost completely withered)) | 5 (Herbicidal ratio of 90% or more (almost completely withered)) | 1 (Herbicidal ratio of 5% or more and less than 20%) | 3 (Herbicidal ratio of 40% or more and less than 70%) | 4 (Herbicidal ratio of 70% or more and less than 90%) | 5 (Herbicidal ratio of 90% or more (almost completely withered)) |  |  |  |  |  |  |  |  |  |  |  |  | M (Abutilon theophrasti) herbicidal effect grade (Abutilon theophrasti): 5 (Herbicidal ratio of 90% or more (almost completely withered)); N (Amaranthus retroflexus) herbicidal effect grade (Amaranthus retroflexus): 5 (Herbicidal ratio of 90% or more (almost completely withered)); P (Stellaria media) herbicidal effect grade (Stellaria media): 4 (Herbicidal ratio of 70% or more and less than 90%); H (Echinochloa crus-galli var. crus-galli) herbicidal effect grade [1]: 5 (Herbicidal ratio of 90% or more (almost completely withered)); J (Alopecurus myosuroides) herbicidal effect grade (Alopecurus myosuroides): 1 (Herbicidal ratio of 5% or more and less than 20%); O (Chenopodium album) herbicidal effect grade (Chenopodium album): 5 (Herbicidal ratio of 90% or more (almost completely withered)); G (Setaria viridis) herbicidal effect grade (Setaria viridis): 3 (Herbicidal ratio of 40% or more and less than 70%) |
| C#CCN(C)c1nnc2c(C(=O)Nc3nnnn3C)ccc(C(F)(F)F)n12 [2-094] |  |  |  |  |  | 5 (Herbicidal ratio of 90% or more (almost completely withered)) | 4 (Herbicidal ratio of 70% or more and less than 90%) | 5 (Herbicidal ratio of 90% or more (almost completely withered)) | 3 (Herbicidal ratio of 40% or more and less than 70%) | 2 (Herbicidal ratio of 20% or more and less than 40%) | 4 (Herbicidal ratio of 70% or more and less than 90%) | 4 (Herbicidal ratio of 70% or more and less than 90%) | 1 (Herbicidal ratio of 5% or more and less than 20%) | 5 (Herbicidal ratio of 90% or more (almost completely withered)) | 4 (Herbicidal ratio of 70% or more and less than 90%) | 5 (Herbicidal ratio of 90% or more (almost completely withered)) | 5 (Herbicidal ratio of 90% or more (almost completely withered)) | 1 (Herbicidal ratio of 5% or more and less than 20%) | 5 (Herbicidal ratio of 90% or more (almost completely withered)) | 4 (Herbicidal ratio of 70% or more and less than 90%) |  |
| C#CCSc1nnc2c(C(=O)Nc3nnnn3C)ccc(C(F)(F)F)n12 [2-103] |  |  |  |  |  | 4 (Herbicidal ratio of 70% or more and less than 90%) | 4 (Herbicidal ratio of 70% or more and less than 90%) | 3 (Herbicidal ratio of 40% or more and less than 70%) | 2 (Herbicidal ratio of 20% or more and less than 40%) | 1 (Herbicidal ratio of 5% or more and less than 20%) | 4 (Herbicidal ratio of 70% or more and less than 90%) | 4 (Herbicidal ratio of 70% or more and less than 90%) | 1 (Herbicidal ratio of 5% or more and less than 20%) | 4 (Herbicidal ratio of 70% or more and less than 90%) | 5 (Herbicidal ratio of 90% or more (almost completely withered)) | 5 (Herbicidal ratio of 90% or more (almost completely withered)) | 5 (Herbicidal ratio of 90% or more (almost completely withered)) | 0 (Herbicidal ratio of 5% or less (almost no effect)) | 5 (Herbicidal ratio of 90% or more (almost completely withered)) | 3 (Herbicidal ratio of 40% or more and less than 70%) |  |
| CN(CCC#N)c1nnc2c(C(=O)Nc3nnnn3C)ccc(C(F)(F)F)n12 [2-095] |  |  |  |  |  | 4 (Herbicidal ratio of 70% or more and less than 90%) | 5 (Herbicidal ratio of 90% or more (almost completely withered)) | 5 (Herbicidal ratio of 90% or more (almost completely withered)) | 5 (Herbicidal ratio of 90% or more (almost completely withered)) | 4 (Herbicidal ratio of 70% or more and less than 90%) | 4 (Herbicidal ratio of 70% or more and less than 90%) | 5 (Herbicidal ratio of 90% or more (almost completely withered)) | 3 (Herbicidal ratio of 40% or more and less than 70%) | 5 (Herbicidal ratio of 90% or more (almost completely withered)) | 5 (Herbicidal ratio of 90% or more (almost completely withered)) | 5 (Herbicidal ratio of 90% or more (almost completely withered)) | 5 (Herbicidal ratio of 90% or more (almost completely withered)) | 4 (Herbicidal ratio of 70% or more and less than 90%) | 5 (Herbicidal ratio of 90% or more (almost completely withered)) | 5 (Herbicidal ratio of 90% or more (almost completely withered)) |  |
